Source: patent US20240391940A1, “FUSED RING-CONTAINING COMPOUND, APPLICATION THEREOF, AND COMPOSITION CONTAINING SAME” (GenEros Biopharma Ltd., priority 2020, published 2024)
Read-outs that look alike come from different tables or passages of the source.

Columns and labels:
[1] = test system: collagen-induced arthritis (CIA) mouse model; conditions: for clinical score / body weight: Mean ± SEM
[2] = test system: collagen-induced arthritis (CIA) mouse model; test: Mouse CIA model, repeated for dose exploration (10, 30, 50 mg/kg); conditions: CIA mice
Excerpt: Testing was repeated for dose exploration
The above method was used.

[3] = GEN1-284s 10, 30 and 50 mg/kg qd po

O=C(Cc1ccc2ncccc2c1)N1CCC(n2c(=O)n(COP(=O)([O-])[O-])c3cccc(C(F)(F)F)c32)CC1.[Na+].[Na+] [GEN1-284 salt, (2-Oxo-3-(1-(2-(quinolin-6-yl)acetyl)piperidin-4-yl)-4-(trifluoromethyl)-2,3-dihydro-1H-benzo[d]imidazol-1-yl)methyl disodium phosphate]
Day on which consistent significant inhibition of the score of arthritis began ([1]; CIA mice, GEN1-284s 50 mg/kg): 32 days
Histomorphological effect on arthritis ([1]; CIA mice, GEN1-284s 50 mg/kg): tendency to relieve arthritis in animals
Inhibition rate of clinical score curve AUC relative to vehicle control group ([1]; CIA mice, GEN1-284s 50 mg/kg): 56.9%
Pathology total score ([1]; CIA mice, GEN1-284s 50 mg/kg): lower than that of the vehicle control group
clinical score ([1]; CIA mice, GEN1-284s 50 mg/kg p.o. QD from day 28, day 21): 0.0 ± 0.00
clinical score ([1]; CIA mice, GEN1-284s 50 mg/kg p.o. QD from day 28, day 25): 0.3 ± 0.16
clinical score ([1]; CIA mice, GEN1-284s 50 mg/kg p.o. QD from day 28, day 28): 0.6 ± 0.26
clinical score ([1]; CIA mice, GEN1-284s 50 mg/kg p.o. QD from day 28, day 29): 0.8 ± 0.25
clinical score ([1]; CIA mice, GEN1-284s 50 mg/kg p.o. QD from day 28, day 32): 1.3 ± 0.31
clinical score ([1]; CIA mice, GEN1-284s 50 mg/kg p.o. QD from day 28, day 34): 1.8 ± 0.56
clinical score ([1]; CIA mice, GEN1-284s 50 mg/kg p.o. QD from day 28, day 36): 2.4 ± 0.84
clinical score ([1]; CIA mice, GEN1-284s 50 mg/kg p.o. QD from day 28, day 39): 2.9 ± 0.90
body weight ([1]; CIA mice, GEN1-284s 50 mg/kg, day 21): 20.64 ± 0.23
body weight ([1]; CIA mice, GEN1-284s 50 mg/kg, day 25): 20.73 ± 0.24
body weight ([1]; CIA mice, GEN1-284s 50 mg/kg, day 28): 20.65 ± 0.25
body weight ([1]; CIA mice, GEN1-284s 50 mg/kg, day 29): 20.49 ± 0.25
body weight ([1]; CIA mice, GEN1-284s 50 mg/kg, day 32): 19.66 ± 0.28
body weight ([1]; CIA mice, GEN1-284s 50 mg/kg, day 34): 20.41 ± 0.31
body weight ([1]; CIA mice, GEN1-284s 50 mg/kg, day 36): 20.54 ± 0.36
body weight ([1]; CIA mice, GEN1-284s 50 mg/kg, day 39): 20.48 ± 0.27
body weight ([1]; CIA mice, GEN1-284s 50 mg/kg, day 41): 20.95 ± 0.20
Day on which consistent significant inhibition of the score of arthritis began ([1]; CIA mice, GEN1-284s 150 mg/kg): 34 days
clinical score ([1]; CIA mice, GEN1-284s 150 mg/kg p.o. QD from day 28, day 21): 0.0 ± 0.00
clinical score ([1]; CIA mice, GEN1-284s 150 mg/kg p.o. QD from day 28, day 25): 0.0 ± 0.00
clinical score ([1]; CIA mice, GEN1-284s 150 mg/kg p.o. QD from day 28, day 28): 0.6 ± 0.26
clinical score ([1]; CIA mice, GEN1-284s 150 mg/kg p.o. QD from day 28, day 29): 0.9 ± 0.40
clinical score ([1]; CIA mice, GEN1-284s 150 mg/kg p.o. QD from day 28, day 32): 2.0 ± 0.42
clinical score ([1]; CIA mice, GEN1-284s 150 mg/kg p.o. QD from day 28, day 34): 2.5 ± 0.57
clinical score ([1]; CIA mice, GEN1-284s 150 mg/kg p.o. QD from day 28, day 36): 3.4 ± 0.78
clinical score ([1]; CIA mice, GEN1-284s 150 mg/kg p.o. QD from day 28, day 39): 3.9 ± 0.93
body weight ([1]; CIA mice, GEN1-284s 150 mg/kg, day 21): 20.40 ± 0.23
body weight ([1]; CIA mice, GEN1-284s 150 mg/kg, day 25): 20.53 ± 0.27
body weight ([1]; CIA mice, GEN1-284s 150 mg/kg, day 28): 20.64 ± 0.24
body weight ([1]; CIA mice, GEN1-284s 150 mg/kg, day 29): 20.48 ± 0.29
body weight ([1]; CIA mice, GEN1-284s 150 mg/kg, day 32): 20.06 ± 0.25
body weight ([1]; CIA mice, GEN1-284s 150 mg/kg, day 34): 20.41 ± 0.41
body weight ([1]; CIA mice, GEN1-284s 150 mg/kg, day 36): 20.70 ± 0.35
body weight ([1]; CIA mice, GEN1-284s 150 mg/kg, day 39): 20.40 ± 0.29
body weight ([1]; CIA mice, GEN1-284s 150 mg/kg, day 41): 20.91 ± 0.26
clinical score ([1]; CIA mice, GEN1-284s 300 mg/kg group (500 mg/kg 5 days, then 300 mg/kg) p.o. QD from day 28, day 21): 0.0 ± 0.00
clinical score ([1]; CIA mice, GEN1-284s 300 mg/kg group (500 mg/kg 5 days, then 300 mg/kg) p.o. QD from day 28, day 25): 0.0 ± 0.00
clinical score ([1]; CIA mice, GEN1-284s 300 mg/kg group (500 mg/kg 5 days, then 300 mg/kg) p.o. QD from day 28, day 28): 0.6 ± 0.26
clinical score ([1]; CIA mice, GEN1-284s 300 mg/kg group (500 mg/kg 5 days, then 300 mg/kg) p.o. QD from day 28, day 29): 0.6 ± 0.24
clinical score ([1]; CIA mice, GEN1-284s 300 mg/kg group (500 mg/kg 5 days, then 300 mg/kg) p.o. QD from day 28, day 32): 2.0 ± 0.58
clinical score ([1]; CIA mice, GEN1-284s 300 mg/kg group (500 mg/kg 5 days, then 300 mg/kg) p.o. QD from day 28, day 34): 2.5 ± 0.87
clinical score ([1]; CIA mice, GEN1-284s 300 mg/kg group (500 mg/kg 5 days, then 300 mg/kg) p.o. QD from day 28, day 36): 4.0 ± 1.15
clinical score ([1]; CIA mice, GEN1-284s 300 mg/kg group (500 mg/kg 5 days, then 300 mg/kg) p.o. QD from day 28, day 39): 5.5 ± 1.19
clinical score ([1]; CIA mice, GEN1-284s 300 mg/kg group (500 mg/kg 5 days, then 300 mg/kg) p.o. QD from day 28, day 41): 6.3 ± 1.38
body weight ([1]; CIA mice, GEN1-284s 300 mg/kg group (500 mg/kg 5 days, then 300 mg/kg), day 21): 20.18 ± 0.29
body weight ([1]; CIA mice, GEN1-284s 300 mg/kg group (500 mg/kg 5 days, then 300 mg/kg), day 25): 20.43 ± 0.27
body weight ([1]; CIA mice, GEN1-284s 300 mg/kg group (500 mg/kg 5 days, then 300 mg/kg), day 28): 20.65 ± 0.34
body weight ([1]; CIA mice, GEN1-284s 300 mg/kg group (500 mg/kg 5 days, then 300 mg/kg), day 29): 20.08 ± 0.49
body weight ([1]; CIA mice, GEN1-284s 300 mg/kg group (500 mg/kg 5 days, then 300 mg/kg), day 32): 19.48 ± 1.02
body weight ([1]; CIA mice, GEN1-284s 300 mg/kg group (500 mg/kg 5 days, then 300 mg/kg), day 34): 19.30 ± 1.05
body weight ([1]; CIA mice, GEN1-284s 300 mg/kg group (500 mg/kg 5 days, then 300 mg/kg), day 36): 19.60 ± 0.81
body weight ([1]; CIA mice, GEN1-284s 300 mg/kg group (500 mg/kg 5 days, then 300 mg/kg), day 39): 19.80 ± 0.96
body weight ([1]; CIA mice, GEN1-284s 300 mg/kg group (500 mg/kg 5 days, then 300 mg/kg), day 41): 20.30 ± 0.78
Mortality ([1]; CIA mice, GEN1-284s 500 mg/kg): death was caused among the mice
Tolerance ([1]; CIA mice, GEN1-284s 50, 150 and 300 mg/kg): good tolerance
Number of mice that died ([1]; high-dose group (500 mg/kg), day 32): On day 32, 1 mouse in the high-dose group died, and the dissection results showed that: the major abnormality was in the lungs, and no obvious abnormality was found in other organs.
Effect on the score of arthritis [2, 3]: consistently and significantly inhibit the score of arthritis
Score of arthritis compared with the tofacitinib positive group [2, 3]: no significant difference from the tofacitinib positive group
Tolerance [2, 3]: good tolerance
Significance of clinical score vs. Vehicle group (Two-way ANOVA) ([2]; GEN1-284s 10 mpk, Day 35): ns
Significance of clinical score vs. Vehicle group (Two-way ANOVA) ([2]; GEN1-284s 10 mpk, Day 38): ns
Significance of clinical score vs. Vehicle group (Two-way ANOVA) ([2]; GEN1-284s 10 mpk, Day 40): ns
Significance of clinical score vs. Vehicle group (Two-way ANOVA) ([2]; GEN1-284s 10 mpk, Day 42): * (*P < 0.05)
Significance of clinical score vs. Vehicle group (Two-way ANOVA) ([2]; GEN1-284s 30 mpk, Day 35): ns
Significance of clinical score vs. Vehicle group (Two-way ANOVA) ([2]; GEN1-284s 30 mpk, Day 38): ** (**P < 0.01)
Significance of clinical score vs. Vehicle group (Two-way ANOVA) ([2]; GEN1-284s 30 mpk, Day 40): * (*P < 0.05)
Significance of clinical score vs. Vehicle group (Two-way ANOVA) ([2]; GEN1-284s 30 mpk, Day 42): * (*P < 0.05)
